Assay results from patent publication US20160075653A1, “NEMATICIDAL N-(PHENYLCYCLOALKYL)CARBOXAMIDES AND N-(PHENYLCYCLOALKYL)THIOCARBOXAMIDES” (BAYER CROPSCIENCE AKTIENGESELLSCHAFT, priority 2013, published 2016).
Where two headings read alike, the source gives them in different places.

Legend:
[1] = test system: Meloidogyne incognita; assay: Meloidogyne incognita test (MELGIN), gall formation on salad seedlings; assay type: in vivo; conditions: application rate 20 ppm, after 14 days
Procedure: Meioidovnve incomita—Test (MELGIN)
Solvent: 125.0 parts by weight of acetone
To produce a suitable preparation of active compound, 1 part by weight of active compound is mixed with the stated amount of solvent, and the concentrate is diluted with water to the desired concentration.
Vessels are filled with sand, a solution of the active ingredient, a suspension containing eggs and larvae of the southern root-knot nematode (Meloidogyne incognita) and salad seeds. The salad seeds germinate and the seedlings grow. Galls develop in the roots.
After 14 days the nematicidal activity is determined on the basis of the percentage of gall formation. 100% means that no galls were found; 0% means the number of galls found on the roots of the treated plants was equal to that in untreated control plants.

[2] = Measurement of log P values by HPLC on reversed phase columns (methods [a] pH 2.3, [b] pH 2.7, [c] pH 7.8); assay type: physicochemical; conditions: for chromatographic logP: reversed phase HPLC columns
In short: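 Determined per EEC Directive 79/831 Annex V.A8 by reversed-phase HPLC, 10-95% acetonitrile gradient: [a] pH 2.3, 0.1% phosphoric acid; [b] LC-MS, pH 2.7, 0.1% formic acid; [c] LC-MS, pH 7.8, 0.001 molar ammonium hydrogen carbonate. Calibrated with C3-C16 alkan-2-ones by retention-time interpolation.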

[3] = HPLC reversed phase, method [b] (pH 2.7)
[4] = HPLC on reversed phase column, method [b], pH 2.7
[5] = HPLC reversed phase, method [c] pH 7.8
[6] = method [b], HPLC reversed phase, pH 2.7

| Compound | nematicidal activity (percentage of gall formation; 100% = no galls) [1] [%] | logP [2, 3] | other results |
| --- | --- | --- | --- |
| O=C(N[C@@H]1CC[C@@H]1c1c(F)cccc1C(F)(F)F)c1c(F)cccc1F (relative stereo) [Compound 564] | 100 | 3.25^[b] | – |
| O=C(N[C@@H]1CC[C@@H]1c1cccc(F)c1C(F)(F)F)c1ccccc1Cl (relative stereo) [Compound 601] | 100 | – | logP [2, 4]: 3.23^[b] |
| O=C(NC1CCCC1c1c(F)cccc1F)c1cccnc1C(F)(F)F (stereo not drawn) [Compound 313] | 100 | 2.87^[b] | – |
| O=C(NC1CCC1c1cc(F)ccc1C(F)(F)F)c1ncccc1Cl (stereo not drawn) [Compound 518] | 100 | 3.08^[b] | – |
| O=C(N[C@@H]1CC[C@@H]1c1cccc(F)c1C(F)(F)F)c1cccnc1 (relative stereo) [Compound 631] | 90 | – | logP [2, 4]: 2.12^[b] |
| O=C(N[C@@H]1CC[C@@H]1c1ccccc1C(F)(F)F)c1cccnc1 (relative stereo) [Compound 619] | 90 | – | logP [2, 4]: 2.06^[b] |
| O=C(N[C@@H]1CC[C@@H]1c1cccc(F)c1C(F)(F)F)c1ccc(Cl)cc1 (relative stereo) [Compound 595] | 100 | – | logP [2, 4]: 3.47^[b] |
| O=C(NC1CCC1c1ccc(Cl)cc1Cl)c1c(F)cccc1F (stereo not drawn) [Compound 482] | 90 | 3.70^[b] | – |
| O=C(N[C@@H]1CC[C@@H]1c1ccc(F)cc1C(F)(F)F)c1ccccc1C(F)(F)F (relative stereo) [Compound 495] | 100 | 3.51^[b] | – |
| O=C(N[C@@H]1CC[C@@H]1c1ccc(F)cc1C(F)(F)F)c1ccccc1Cl (relative stereo) [Compound 509] | 100 | 3.34^[b] | – |
| O=C(N[C@@H]1CC[C@@H]1c1cccc(F)c1C(F)(F)F)c1ccc(Cl)cc1Cl (relative stereo) [Compound 594] | 90 | – | logP [2, 4]: 3.73^[b] |
| O=C(NC1CCC1c1ccc(F)cc1C(F)(F)F)c1sccc1I (stereo not drawn) [Compound 519] | 90 | 4.09^[b] | – |
| O=C(NC1CCC1c1c(F)cccc1F)c1ccccc1I (stereo not drawn) [Compound 440] | 90 | 3.13^[b] | – |
| O=C(N[C@@H]1CC[C@H]1c1cccc(F)c1C(F)(F)F)c1cccnc1C(F)(F)F (relative stereo) [Compound 642] | 90 | – | logP [2, 4]: 3.15^[b] |
| O=C(N[C@@H]1CC[C@@H]1c1cc(F)ccc1C(F)(F)F)c1cccnc1 (relative stereo) [Compound 587] | 90 | 2.22^[b] | – |
| O=C(N[C@@H]1CC[C@@H]1c1cccc(F)c1C(F)(F)F)c1ncccc1Cl (relative stereo) [Compound 617] | 100 | – | logP [2, 4]: 2.97^[b] |
| O=C(N[C@@H]1CC[C@@H]1c1c(F)cccc1C(F)(F)F)c1ccccc1I (relative stereo) [Compound 542] | 100 | 3.96^[b] | – |
| O=C(N[C@@H]1C[C@@H]1c1ccc(Cl)cc1Cl)c1nccnc1Cl (relative stereo) [Compound 567] | 90 | 2.75^[b] | – |
| Cn1cc(C(=O)N[C@@H]2CC[C@@H]2c2c(F)cccc2C(F)(F)F)c(C(F)F)n1 (relative stereo) [Compound 574] | 100 | 2.91^[b] | – |
| O=C(NC1CC1c1ccc(Cl)cc1)c1ncccc1C(F)(F)F (stereo not drawn) [Compound 462] | 100 | 2.85^[b] | logP [2, 5]: 2.81^[c]; |
| O=C(N[C@@H]1CC[C@@H]1c1cc(F)ccc1C(F)(F)F)c1ccccc1C(F)(F)F (relative stereo) [Compound 586] | 100 | 3.53^[b] | – |
| O=C(N[C@@H]1CC[C@@H]1c1cc(F)ccc1C(F)(F)F)c1ccccc1 (relative stereo) [Compound 550] | 100 | 3.15^[b] | – |
| O=C(NC1CC1c1ccc(Cl)cc1)c1cccnc1C(F)F (stereo not drawn) [Compound 465] | 100 | 2.15^[b] | logP [2, 5]: 2.14^[c]; |

| Compound | nematicidal activity (percentage of gall formation; 100% = no galls) [1] [%] | logP [2, 3] | other results |
| --- | --- | --- | --- |
| O=C(N[C@@H]1CC[C@H]1c1ccccc1Cl)c1sccc1I (relative stereo) [Compound 544] | 90 | 3.86^[b] | – |
| O=C(N[C@@H]1C[C@@H]1c1ccc(Cl)cc1)c1nccnc1C(F)(F)F (relative stereo) [Compound 532] | 100 | 2.68^[b] | logP [2, 5]: 2.65^[c]; |
| O=C(N[C@@H]1CC[C@@H]1c1cc(F)ccc1C(F)(F)F)c1ccccc1Br (relative stereo) [Compound 560] | 100 | 3.38^[b] | – |
| O=C(NC1CCC1c1ccc(F)cc1C(F)(F)F)c1sccc1I (stereo not drawn) [Compound 520] | 100 | 3.82^[b] | – |
| Cn1cc(C(=O)NC2CC2c2ccc(Cl)cc2)c(C(F)(F)F)n1 (stereo not drawn) [Compound 11] | 90 | – | logP ([2]; HPLC on reversed phase columns, method [b], pH 2.7): 3.43^[b] |
| O=C(N[C@@H]1CC[C@@H]1c1c(F)cccc1C(F)(F)F)c1ncccc1Cl (relative stereo) [Compound 537] | 100 | 2.92^[b] | – |
| O=C(N[C@@H]1CC[C@H]1c1ccccc1Cl)c1nccnc1Cl (relative stereo) [Compound 548] | 100 | 2.81^[b] | – |
| O=C(N[C@@H]1CC[C@@H]1c1cccc(F)c1C(F)(F)F)c1ccccc1I (relative stereo) [Compound 599] | 100 | – | logP [2, 4]: 3.39^[b] |
| O=C(NC1CCC1c1c(F)cccc1F)c1ccccc1Br (stereo not drawn) [Compound 227] | 100 | – | logP [2, 6]: 2.97^[b] |
| O=C(N[C@@H]1CC[C@@H]1c1cc(F)ccc1C(F)(F)F)c1nccnc1Cl (relative stereo) [Compound 559] | 100 | 2.88^[b] | – |
| O=C(N[C@@H]1CC[C@@H]1c1ccccc1Cl)c1ncccc1Cl (relative stereo) [Compound 247, cis-3-chloro-N-[2-(2-chlorophenyl)cyclobutyl]pyridine-2-carboxamide] | 100 | – | chromatographic logP ([2]; HPLC-MS, method letter not given, read-out: log P): 2.79; chromatographic logP ([2]; pH 2.7, HPLC reversed phase, method [b] (pH 2.7), read-out: logP): 2.79 |
| O=C(NC1CCC1c1ccc(F)cc1C(F)(F)F)c1ncccc1Cl (stereo not drawn) [Compound 479] | 100 | 3.11^[b] | – |
| O=C(NC1CC1c1ccc(Cl)cc1Cl)c1sccc1Cl (stereo not drawn) [Compound 213] | 100 | – | logP [2, 6]: 4.08^[b]; logP ([2]; method [c], HPLC reversed phase, pH 7.8): 4.02^[c]; |
| O=C(NC1CC1c1ccc(Cl)cc1)c1nccnc1Cl (stereo not drawn) [Compound 461] | 100 | 2.29^[b] | logP [2, 5]: 2.27^[c]; |
| Cn1cc(C(=O)N[C@@H]2CC[C@@H]2c2cc(F)ccc2C(F)(F)F)c(C(F)F)n1 (relative stereo) [Compound 556] | 90 | 2.85^[b] | – |
| O=C(NC1CCC1c1ccccc1C(F)(F)F)c1ccccc1Br (stereo not drawn) [Compound 216] | 100 | – | logP [2, 6]: 3.32^[b] |
| O=C(NC1CCC1c1ccccc1C(F)(F)F)c1c(F)cccc1F (stereo not drawn) [Compound 430] | 100 | 3.09^[b] | – |
| O=C(NC1CCCC1c1ccccc1Cl)c1ccccc1C(F)(F)F (stereo not drawn) [Compound 296] | 90 | 3.55^[b] | – |
| O=C(N[C@@H]1CC[C@@H]1c1cccc(F)c1C(F)(F)F)c1cccnc1Cl (relative stereo) [Compound 647] | 100 | – | logP [2, 4]: 2.66^[b] |
| Cc1nc(C(F)(F)F)c(C(=O)N[C@@H]2CC[C@@H]2c2ccccc2Cl)s1 (relative stereo) [Compound 545] | 100 | 3.15^[b] | – |
| O=C(NC1CCCC1c1ccccc1Cl)c1cccnc1C(F)(F)F (stereo not drawn) [Compound 297] | 100 | 3.05^[b] | – |
| O=C(N[C@@H]1CC[C@@H]1c1cc(F)ccc1C(F)(F)F)c1cccnc1C(F)(F)F (relative stereo) [Compound 572] | 100 | 3.06^[b] | – |
